Key:
[1] = test system: NonL; assay: In vitro assay of NonL as a CoA ligase (conversion of acids to CoA esters, HPLC); format: biochemical, Streptomyces griseus
From the text: Expression of nonL and characterization of NonL as a CoA ligase. The nonL gene was amplified from pBS2013 by PCR with forward primer of 5′-[…]-3′ (SEQ ID NO:12) (the NdeI site is underlined) and reverse primer of 3′-[…]-5′ (SEQ ID NO:13)(the EcoRI site is underlined) and cloned as a 1.7-kb NdeI-EcoRI fragment into the same sites of pET28a (Novagen, Madison, Wis.) to yield pBS2023. The expression of nonL in E. coli BL-21 (DE-3) (pBS2023) and purification of the resulting NonL protein by affinity chromatography on Ni-NTA resin were carried out under the standard conditions recommended by Novagen (FIG. 10). The incubation temperature was lowered to 15° C. to improve the solubility.
For in vitro assay of NonL as a CoA ligase, the complete assay solution (50 μl) consisted of 2 mM ATP, 2 mM CoA, 2 mM (±)-3, 10 mM KCl, 2 mM DTT, 5 mM MgCl2, 50 to 800 nM NonL in 10 mM Tris-HCl, pH 8.0. The reaction mixture was incubated at 30° C. for 2 hr and analyzed by HPLC on an Alltima C18 column (4.6×250 mm, 5μ, 100 Å, Alltech, Deerfield, Ill.). The column was first eluted in 20 mM NH4Ac, pH 5.8, for 5 min, followed by linear gradient from 0% to 50% CH3CN in 20 mM NH4Ac, pH 5.8 for 10 min, and maintained at 50% CH3CN in 20 mM NH4Ac for an additional 10 min, with flow rate of 0.8 ml/min and detection at 260 nm.
On the basis of its high sequence homology to a family of CoA ligases, the inventors reasoned that NonL, rather than directly contributing to the C—O bond-forming steps, instead activates (±)-3 into CoA esters (±)-2 that are then tetramerized into 1 by the NonJK KSs. To validate this hypothesis, the inventors expressed nonL in E. coli, purified NonL as a His6-tagged fusion protein (FIG. 10), and characterized NonL as a CoA ligase. The inventors monitored the in vitro assay of NonL by HPLC analysis: NonL catalyzes the conversion of (±)-3 to (±)-2, requiring CoA and ATP as co-substrates. Under the condition examined, 80% of (±)-3 was converted to (±)-2 in 2 hrs, confirming that NonL recognizes both (+)- and (−)-3 as substrates (FIG. 7). The identity of (±)-2 was verified by ESI-MS, yielding a characteristic (M−2H)^2− ion at m/z=474.7, consistent with the molecular formula of C31H52N7O19P3S.
In this particular experiment, the inventors expanded the category of synthetic 8 derivatives to determine the degree of flexibilities of each process in macrotetrolide biosynthesis. With minor modifications in the previously described method, (±)-8-n-propyl-nonactate (8), (±)-epi-8-n-propyl-nonactate (A), (±)-2-n-propyl-nonactate (B), and (±)-epi-2-n-propyl-nonactate (C) were prepared. These four compounds were tested for the CoA-activated by using purified NonL. […] The chromosomal DNA fragment encompassing nonJ and nonL from S. griseus DSM40695 was subcloned into pIJ4123 under the control of thiostrepton inducible promoter (tipAp) to generate pBS2045 that was introduced into S. lividans TK-24. For pIJ4123, see the reference; Takano, E.; White, J.; Thompson, C. J.; Bibb, M. J. Gene 1995, 160, 133.

[2] = test system: NonJ; assay: Dimer formation with cell-free extract of S. lividans (pBS2045) harboring nonL and nonJ; format: biochemical, Streptomyces griseus; details: CFE of S. lividans (pBS2045)
Chain of NonJ (as listed by the source): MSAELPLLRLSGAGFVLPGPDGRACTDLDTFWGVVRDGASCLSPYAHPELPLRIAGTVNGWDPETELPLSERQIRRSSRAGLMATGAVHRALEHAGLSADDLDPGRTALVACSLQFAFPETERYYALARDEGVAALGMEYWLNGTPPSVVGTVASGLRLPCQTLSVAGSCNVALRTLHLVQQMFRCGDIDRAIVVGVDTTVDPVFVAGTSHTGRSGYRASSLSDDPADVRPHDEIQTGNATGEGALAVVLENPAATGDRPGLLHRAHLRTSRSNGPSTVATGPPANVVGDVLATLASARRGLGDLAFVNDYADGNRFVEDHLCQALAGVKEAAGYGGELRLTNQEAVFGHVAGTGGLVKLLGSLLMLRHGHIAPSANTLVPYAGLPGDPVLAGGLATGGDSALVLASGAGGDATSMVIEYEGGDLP
Protocol: Cell-free extract (CFE) preparation: S. lividans (pBS2045) were grown on Yeast Extract-Malt Extract (YEME, 34% sucrose) media supplemented with kanamycin (50 μg/ml), at 30° C. and 300 rpm for 1 d and added with thiostrepton (5 μg/ml). The thiostrepton-treated culture was maintained in the same condition for 1 d and then harvested by centrifugation (13,600 g, 20 min, 4° C.). Cell were lysed in 30 ml of 100 mM sodium phosphate buffer (pH, 8.0)-1 mM EDTA-50 mM KCl-10% glycerol with lysozyme (2 mg/ml) for 30 min at 4° C., sonicated for thirty 10-sec bursts at 300 W with a 30-sec cooling period between each burst. […]
Conditions for CFE-assay and chemical analysis: The assay solution consisted of 1 to 2 mM each of (±)-6, CoA, and ATP and 0.8 mg/ml of protein in 10 mM Tris-Cl (pH, 8.0)-10 mM KCl-2 mM DTT-5 mM MgCl2, and incubated at 30° C. for 1 h to 3 hs. […] The organic layer was analyzed for 1 by Thin-Layer Chromatography (TLC), Evaporative Light-Scattering Detector (ELSD)-High Performance Liquid Chromatography (HPLC), and positive Matrix-Assisted Laser Desorption Ionization (MALDI)-Mass Spectrometry (MS) analysis as previously described.^5d The aqueous layer was analyzed by HPLC with UV-detection, from which relevant peaks were collected and subjected to negative MALDI-MS analysis. […]

| Compound | conversion of (±)-3 to (±)-2 by NonL ([1]; in 2 hrs, 30° C., 2 mM ATP, 2 mM CoA, 2 mM (±)-3) | conversion into CoA derivative by purified NonL [1] | dimer (dimeric CoA ester) formation by NonJ [2] |
| --- | --- | --- | --- |
| CC(O)CC1CCC(C(C)C(=O)O)O1 (racemic) [(±)-3, nonactic acid] | 80% | – | – |
| (±)-2-n-propyl-nonactate [B] | – | no conversion was evident | – |
| (±)-8-n-propyl nonactate [compound 8] | – | efficiently converted | converted the dimeric 8-CoA |
| (±)-epi-2-n-propyl-nonactate | – | no conversion was evident | – |
| (±)-epi-8-n-propyl-nonactate | – | efficiently converted | no dimeric A-CoA was found |

Reference: patent US7416870B2, “Methods of directing C-O bond formation utilizing a type II polyketide synthase system” (Wisconsin Alumni Research Foundation, priority 2002, dated 2008)
